Laboratory results reported in ChEMBL document CHEMBL5052856, “Inhibitors of apol1 and methods of using same” (2021).

What was measured:
[1] = target: Apolipoprotein L1 (Homo sapiens, UniProt O14791); experiment: Inhibition of APOL1 G1 variant in human HEK293-T-REx cells measured by Thallium assay; type: cell-based
[2] = system: Trypanosoma brucei brucei; experiment: Antitrypanosomal activity against Trypanosoma brucei brucei assessed as trypanosome lysis using recombinant APOL1 protein G1 variant and measured by Alamar blue based fluoresence assay; type: functional, organism-based

SMILES	IC50 [1] [nM]	IC50 [2] [nM]
CN(CC(O)CO)C(=O)[C@H]1C[C@H](c2c(-c3ccc(F)cc3)[nH]c3c(F)cc(F)cc32)C1 (some centres undefined)	> 1000	250
CC1(CO)CCN1C(=O)[C@H]1C[C@H](c2c(-c3ccc(F)cc3)[nH]c3c(F)cc(F)cc32)C1 (some centres undefined)	0.25	< 250
NC(=O)[C@@H]1CCN(C(=O)[C@H]2C[C@H](c3c(-c4ccc(F)cc4)[nH]c4c(F)cc(F)cc43)C2)C1	> 1000	> 1000
O=C(NCC(F)(F)F)[C@H]1C[C@H](c2c(-c3ccc(F)cc3)[nH]c3c(F)cc(F)cc32)C1	0.25	> 1000
O=C1NCC[C@H]1NC(=O)[C@H]1C[C@H](c2c(-c3ccc(F)cc3)[nH]c3c(F)cc(F)cc32)C1	0.25	< 250
CN(C)C[C@@H]1CCN(C(=O)[C@H]2C[C@H](c3c(-c4ccc(F)cc4)[nH]c4c(F)cc(F)cc43)C2)C[C@H]1O	> 1000	250
O=C(N[C@H]1CC[C@H]1O)[C@H]1C[C@H](c2c(-c3ccc(F)cc3)[nH]c3c(F)cc(F)cc32)C1	0.25	250
O=C([C@H]1C[C@H](c2c(-c3ccc(F)cc3)[nH]c3c(F)cc(F)cc32)C1)N1CC[C@H]1CO	0.25	< 250
CN1CC(CNC(=O)[C@H]2C[C@H](c3c(-c4ccc(F)cc4)[nH]c4c(F)cc(F)cc43)C2)CC1=O (some centres undefined)	> 1000	> 1000
O=C([C@H]1C[C@H](c2c(-c3ccc(F)cc3)[nH]c3c(F)cc(F)cc32)C1)N1CC(CO)C1	> 1000	< 250
O=C1C[C@@H](NC(=O)[C@H]2C[C@H](c3c(-c4ccc(F)cc4)[nH]c4c(F)cc(F)cc43)C2)C(=O)N1	< 250	< 250
C[C@@H](CO)NC(=O)[C@H]1C[C@H](c2c(-c3ccc(F)cc3)[nH]c3c(F)cc(F)cc32)C1	< 250	< 250
O=C([C@H]1C[C@H](c2c(-c3ccc(F)cc3)[nH]c3c(F)cc(F)cc32)C1)N1CCOC[C@@H]1CO	0.25	< 250
NC(=O)CC1CC(c2c(-c3ccc(F)cc3)[nH]c3c(F)cc(F)cc23)C1 (centres undefined)	< 250	< 250
O=C(NCCn1cnnc1)[C@H]1C[C@H](c2c(-c3ccc(F)cc3)[nH]c3c(F)cc(F)cc32)C1	> 1000	> 1000
Cn1ccc(NC(=O)[C@H]2C[C@H](c3c(-c4ccc(F)cc4)[nH]c4c(F)cc(F)cc43)C2)n1	> 1000	250
O=C([C@H]1C[C@H](c2c(-c3ccc(F)cc3)[nH]c3c(F)cc(F)cc32)C1)N1CCCC(O)C1 (some centres undefined)	> 1000	250
O=C([C@H]1C[C@H](c2c(-c3ccc(F)cc3)[nH]c3c(F)cc(F)cc32)C1)N1CCOC(CO)C1 (some centres undefined)	> 1000	> 1000
NC(=O)C1CC(c2c(-c3ccc(F)cc3)[nH]c3c(F)cc(F)cc23)C1 (centres undefined)	0.25	250
O=C(NCC1CC(F)(F)C1)[C@H]1C[C@H](c2c(-c3ccc(F)cc3)[nH]c3c(F)cc(F)cc32)C1	> 1000	> 1000
O=C([C@H]1C[C@H](c2c(-c3ccc(F)cc3)[nH]c3c(F)cc(F)cc32)C1)N1CC(n2cccn2)C1	> 1000	> 1000
O=C1OCC[C@@H]1NC(=O)[C@H]1C[C@H](c2c(-c3ccc(F)cc3)[nH]c3c(F)cc(F)cc32)C1	0.25	250
O=C([C@H]1C[C@H](c2c(-c3ccc(F)cc3)[nH]c3c(F)cc(F)cc32)C1)N1C[C@@H](CO)OCC12CC2	> 1000	> 1000
C[C@H](CO)N(C)C(=O)[C@H]1C[C@H](c2c(-c3ccc(F)cc3)[nH]c3c(F)cc(F)cc32)C1 (mixture of isomers)	0.25	< 250

SMILES	IC50 [1] [nM]	IC50 [2] [nM]
C[C@@H](O)CNC(=O)[C@H]1C[C@H](c2c(-c3ccc(F)cc3)[nH]c3c(F)cc(F)cc32)C1	0.25	250
O=C1NCCC1NC(=O)[C@H]1C[C@H](c2c(-c3ccc(F)cc3)[nH]c3c(F)cc(F)cc32)C1 (some centres undefined)	< 250	< 250
CC1CC(NC(=O)[C@H]2C[C@H](c3c(-c4ccc(F)cc4)[nH]c4c(F)cc(F)cc43)C2)C(=O)O1 (some centres undefined)	> 1000	> 1000
O=C(NC1CC(O)C1)[C@H]1C[C@H](c2c(-c3ccc(F)cc3)[nH]c3c(F)cc(F)cc32)C1 (some centres undefined)	0.25	250
O=C([C@H]1C[C@H](c2c(-c3ccc(F)cc3)[nH]c3c(F)cc(F)cc32)C1)N1CC(O)C(CO)C1 (some centres undefined)	> 1000	250
COCc1cc(CNC(=O)[C@H]2C[C@H](c3c(-c4ccc(F)cc4)[nH]c4c(F)cc(F)cc43)C2)n[nH]1	> 1000	> 1000
Cc1cnc(NC(=O)[C@H]2C[C@H](c3c(-c4ccc(F)cc4)[nH]c4c(F)cc(F)cc43)C2)o1	≥ 250	< 250
O=C([C@H]1C[C@H](c2c(-c3ccc(F)cc3)[nH]c3c(F)cc(F)cc32)C1)N1CCCC[C@@H]1CCO	> 1000	> 1000
NC(=O)CNCC1CC(c2c(-c3ccc(F)cc3)[nH]c3c(F)cc(F)cc23)C1 (centres undefined)	< 250	< 250
O=C(CNC(=O)[C@H]1C[C@H](c2c(-c3ccc(F)cc3)[nH]c3c(F)cc(F)cc32)C1)NC1CC1	> 1000	> 1000
O=C([C@H]1C[C@H](c2c(-c3ccc(F)cc3)[nH]c3c(F)cc(F)cc32)C1)N1CCC[C@H](O)C1 (mixture of isomers)	> 1000	250
CC(CO)NC(=O)[C@H]1C[C@H](c2c(-c3ccc(F)cc3)[nH]c3c(F)cc(F)cc32)C1 (some centres undefined)	< 250	< 250
O=C(NCC1(O)CCCCC1)[C@H]1C[C@H](c2c(-c3ccc(F)cc3)[nH]c3c(F)cc(F)cc32)C1	> 1000	> 1000
CC(C)C[C@@H](CO)NC(=O)C1CC(Cc2c(-c3ccc(F)cc3)[nH]c3c(F)cc(F)cc23)C1 (some centres undefined)	> 1000	–
NC(=O)CNC(=O)C1CC(c2c(-c3ccc(F)cc3)[nH]c3c(F)cc(C(F)(F)F)cc23)C1 (centres undefined)	< 250	–
O=C(CNC(=O)[C@H]1C[C@H](c2c(-c3ccc(F)cc3)[nH]c3c(F)cc(F)cc32)C1)NCCO	> 1000	–
O=C(NCC1COC1)[C@H]1C[C@@H](c2c(-c3ccc(F)cc3)[nH]c3c(F)cc(F)cc32)C1	> 1000	–
CNC(=O)C(C)NCC1CC(c2c(-c3ccc(F)cc3)[nH]c3c(F)cc(F)cc23)C1 (centres undefined)	0.25	–
C[C@@H](CO)NC(=O)N[C@H]1C[C@H](c2c(-c3ccc(F)cc3)[nH]c3c(F)cc(F)cc32)C1	0.25	–
O=C(NCC(F)(F)F)[C@H]1C[C@@H](c2c(-c3ccc(F)cc3)[nH]c3c(F)cc(F)cc32)C1	0.25	–
O=C(NC(CO)CO)[C@H]1C[C@@H](c2c(-c3ccc(F)cc3)[nH]c3c(F)cc(F)cc32)C1	> 1000	–
C[C@H](NCC1CC(c2c(-c3ccc(F)cc3)[nH]c3c(F)cc(F)cc23)C1)C(=O)N(C)C (some centres undefined)	0.25	–
O=C(CNC[C@H]1C[C@H](c2c(-c3ccc(F)cc3)[nH]c3c(F)cc(F)cc32)C1)NC1CC1	0.25	–
C[C@]1(NC(=O)NC[C@H]2C[C@H](c3c(-c4ccc(F)cc4)[nH]c4c(F)cc(F)cc43)C2)C[C@@H](O)C1	> 1000	–

SMILES	IC50 [1] [nM]	IC50 [2] [nM]
O=C(CC1CC(c2c(-c3ccc(F)cc3)[nH]c3c(F)cc(F)cc23)C1)NCCO (centres undefined)	> 1000	–
CC(C)(CO)NC(=O)O[C@H]1C[C@H](c2c(-c3ccc(F)cc3)[nH]c3c(F)cc(F)cc32)C1	0.25	–
CC(CO)N(C)C(=O)NC[C@H]1C[C@H](c2c(-c3ccc(F)cc3)[nH]c3c(F)cc(F)cc32)C1 (some centres undefined)	> 1000	–
C[C@@H](O)CNC(=O)O[C@H]1C[C@H](c2c(-c3ccc(F)cc3)[nH]c3c(F)cc(F)cc32)C1	> 1000	–
C[C@H](O)CNC(=O)C1CC(Cc2c(-c3ccc(F)cc3)[nH]c3c(F)cc(F)cc23)C1 (some centres undefined)	> 1000	–
O=C(NC(CO)CO)N[C@H]1C[C@H](c2c(-c3ccc(F)cc3)[nH]c3c(F)cc(F)cc32)C1	> 1000	–
CC(C)(C)[C@H](CO)NC(=O)NC[C@H]1C[C@H](c2c(-c3ccc(F)cc3)[nH]c3c(F)cc(F)cc32)C1	> 1000	–
O=C(NCC1CCCO1)C1CC(Cc2c(-c3ccc(F)cc3)[nH]c3c(F)cc(F)cc23)C1 (centres undefined)	> 1000	–
O=C(N[C@H]1CCOC1)[C@H]1C[C@@H](c2c(-c3ccc(F)cc3)[nH]c3c(F)cc(F)cc32)C1	> 1000	–
O=C1CN(C(=O)[C@H]2C[C@@H](c3c(-c4ccc(F)cc4)[nH]c4c(F)cc(F)cc43)C2)CCN1	> 1000	–
O=C(Nc1c[nH][nH]c1=O)C1CC(Cc2c(-c3ccc(F)cc3)[nH]c3c(F)cc(F)cc23)C1 (centres undefined)	> 1000	–
NC(=O)CNC(=O)O[C@H]1C[C@H](c2c(-c3ccc(F)cc3)[nH]c3c(F)cc(F)cc32)C1	< 250	–
C[C@@H](CO)NC(=O)O[C@H]1C[C@H](c2c(-c3ccc(F)cc3)[nH]c3c(F)cc(F)cc32)C1	0.25	–
CNC(=O)NC[C@H]1C[C@H](c2c(-c3ccc(F)cc3)[nH]c3c(F)cc(F)cc32)C1	0.25	–
CC(C)(O)CNC(=O)C1CC(Cc2c(-c3ccc(F)cc3)[nH]c3c(F)cc(F)cc23)C1 (centres undefined)	> 1000	–
O=C(NC1CC(O)C1)O[C@H]1C[C@H](c2c(-c3ccc(F)cc3)[nH]c3c(F)cc(F)cc32)C1 (some centres undefined)	> 1000	–
CC[C@H](NCC1CC(c2c(-c3ccc(F)cc3)[nH]c3c(F)cc(F)cc23)C1)C(=O)NCC(F)(F)F (some centres undefined)	> 1000	–
O=C(NC[C@H]1C[C@H](c2c(-c3ccc(F)cc3)[nH]c3c(F)cc(F)cc32)C1)N1CCC[C@@H]1CO	> 1000	–
CC(=O)NCCNC(=O)C1CC(Cc2c(-c3ccc(F)cc3)[nH]c3c(F)cc(F)cc23)C1 (centres undefined)	> 1000	–
O=C(NCc1ncc[nH]1)O[C@H]1C[C@H](c2c(-c3ccc(F)cc3)[nH]c3c(F)cc(F)cc32)C1	> 1000	–
Cn1nccc1NC(=O)[C@H]1C[C@@H](c2c(-c3ccc(F)cc3)[nH]c3c(F)cc(F)cc32)C1	> 1000	–
NC(=O)CCNC1CC(c2c(-c3ccc(F)cc3)[nH]c3c(F)cc(F)cc23)C1 (centres undefined)	> 1000	–
C[C@H](CO)NC(=O)NC[C@H]1C[C@H](c2c(-c3ccc(F)cc3)[nH]c3c(F)cc(F)cc32)C1	> 1000	–
O=C(NCC(O)C(F)F)C1CC(Cc2c(-c3ccc(F)cc3)[nH]c3c(F)cc(F)cc23)C1 (centres undefined)	> 1000	–
